Experiment [1] has as its system 3T3-L1. Description: Percentage of rosiglitazone response for insulin-sensitizing activity at 1 uM concentration in 3T3-L1 cells. Type of experiment: functional, Mus musculus.
Experiment [2] deals with 3T3-L1. Description: Effective concentration for enhancement of insulin-induced triglyceride accumulation in 3T3-L1 cells. Format: functional. As to conditions: Mus musculus.

By EC30 is commonly meant the point of the concentration-response curve where the effect stands at 30%.

SMILES strings stand for the structures.

On to `CCc1ccc(CCOc2ccc3cc(C(=O)O)c(=O)oc3c2)nc1`, for which the Insulin-sensitizing activity in the experiment on 3T3-L1 [1] worked out at 15%.
Regarding `CCc1ccc(CCOc2ccc3cc(C(=O)OC)c(=O)oc3c2)nc1`, in the experiment with 3T3-L1 [1], the Insulin-sensitizing activity is on record as 46%.
With `COC(=O)C1Cc2ccc(OCCN(C)c3nc4ccccc4o3)cc2OC1=O` (stereo not drawn), in the experiment with 3T3-L1 [1], the Insulin-sensitizing activity was 108%. Besides, the EC30 in the experiment on 3T3-L1 [2] was determined as 0.219 µM.
For the compound `COC(=O)c1cc2ccc(OCCN(C)C(=O)OC(C)(C)C)cc2oc1=O`, in the experiment on 3T3-L1 [1], the Insulin-sensitizing activity turned out to be 115%.
On the same count and under the same terms, to `COC(=O)C1Cc2cc(OCCc3nc(-c4ccccc4)oc3C)ccc2OC1=O` (stereo not drawn) belongs 28%.
`COC(=O)C1Cc2ccc(OCCc3nc(-c4ccccc4)oc3C)cc2OC1=O` (stereo not drawn): the Insulin-sensitizing activity in the experiment on 3T3-L1 [1] is given as 132%. In the experiment on 3T3-L1 [2], the EC30 worked out at 0.0156 µM.
Turning to `COC(=O)c1cc2cc(OCCc3nc(-c4ccccc4)oc3C)ccc2oc1=O`, in the experiment on 3T3-L1 [1], the Insulin-sensitizing activity is 33%.
As to `COC(=O)c1cc2ccc(OCCc3nc(-c4ccccc4)oc3C)cc2oc1=O`, the Insulin-sensitizing activity with 3T3-L1 [1] came out at 129%. For the same compound, in the experiment on 3T3-L1 [2], the EC30 turned out to be 0.008 µM.
The corresponding values for `COC(=O)c1cc2ccc(OCCn3ccc4ccccc43)cc2oc1=O` are 108% and 0.344 µM.
In the case of `CCc1ccc(CCOc2ccc3c(c2)OC(=O)C(C(=O)OC)C3)nc1` (stereo not drawn), the Insulin-sensitizing activity with 3T3-L1 [1] stood at 27%.
In the case of `Cc1oc(-c2ccccc2)nc1CCOc1ccc2cc(C(=O)OC(C)(C)C)c(=O)oc2c1`, the Insulin-sensitizing activity in the experiment with 3T3-L1 [1] turned out to be 89%. The EC30 in the experiment on 3T3-L1 [2] was found to be 0.382 µM.
For `Cc1oc(-c2ccccc2)nc1CCOc1ccc2c(c1)OC(=O)C(C(=O)O)C2` (stereo not drawn) the same measures were 98% and 0.11 µM.
On to `O=C(O)c1cc2ccc(OCCn3ccc4ccccc43)cc2oc1=O`, for which the Insulin-sensitizing activity in the experiment on 3T3-L1 [1] came to 25%.
With `Cc1oc(-c2ccccc2)nc1CCOc1ccc2cc(C(=O)O)c(=O)oc2c1`, the Insulin-sensitizing activity in the experiment on 3T3-L1 [1] amounted to 103%. Further, the 30% effect concentration (EC30) in the experiment on 3T3-L1 [2] was determined as 0.3 µM.
In the case of `CN(CCOc1ccc(CC2SC(=O)NC2=O)cc1)c1ccccn1` (stereo not drawn) [ROSIGLITAZONE], the Insulin-sensitizing activity in the experiment on 3T3-L1 [1] was 100%. For the same compound, the EC30 with 3T3-L1 [2] is 0.0203 µM.

These data come from ChEMBL document CHEMBL1136279, “Synthesis and insulin-sensitizing activity of a novel kind of benzopyran derivative” (2003).
